{
  "source": "patent US6716411B2",
  "about": "“Method for finding nucleotide synthesis inhibitors having fewer side effects” (Aventis Pharma Deustschland GmbH, priority 1999, dated 2004)",
  "tested_on": "pemphigus vulgaris",
  "assay": "Observation of leflunomide treatment in humans",
  "type": "in vivo",
  "conditions": "one patient",
  "method": "This diarrhea adversely affected the quality of life of the patient. Because of the problems caused by this side effect, an attempt was made, after more than two years' therapy with a constant dose of 20 mg of leflunomide per day, to end the therapy.\nThis observation was surprising, as the active metabolite of leflunomide, compound 1, has a half-life of approximately 14 days in humans. Furthermore, in this patient the blood levels of the active metabolite of leflunomide were repeatedly determined in the relatively high range between 70 mg/l and 85 mg/l.",
  "data": [
    {"compound": "Cc1oncc1C(=O)Nc1ccc(C(F)(F)F)cc1", "note": "[leflunomide, N-(4-trifluoromethylphenyl)-5-methylisoxazole-4-carboxamide]", "values": [
      {"measurement": "side effect of treatment", "setting": "20 mg of leflunomide per day", "value": "permanent diarrhea"},
      {"measurement": "symptoms of pemphigus vulgaris under therapy", "setting": "20 mg of leflunomide per day", "value": "completely disappeared"},
      {"measurement": "pemphigus vulgaris four days following discontinuation", "setting": "after more than two years' therapy", "value": "occurred again severely"}
    ]}
  ]
}
